Assay results from patent US20190062305A1, “PYRIDYL OR PYRAZINYL COMPOUNDS CARRYING A METHYL-BOUND ALPHA-AMINO ACID AMIDE GROUP” (ABBVIE DEUTSCHLAND GMBH & CO. KG, priority 2015, published 2019).

Tests used:
5-HT2C receptor = biological target: T1, 5-HT2C receptor (Homo sapiens, UniProt P28335); assay: Human 5-HT2C functional assay (beta-arrestin2 recruitment, U2OS_HTR2C_β-Arrestin cells); assay type: cell-based; settings: for EC50: beta-arrestin2 recruitment, U2OS_HTR2C_β-Arrestin cells, 1.5 h incubation, read-out: EC50 5-HT2C (potency in functional assay); for Emax: relative efficacy vs response to 10 μM 5-HT or maximal 5-HT effect (100%)
T1 construct: host or cells: U2OS
T1 sequence (P28335 33-458): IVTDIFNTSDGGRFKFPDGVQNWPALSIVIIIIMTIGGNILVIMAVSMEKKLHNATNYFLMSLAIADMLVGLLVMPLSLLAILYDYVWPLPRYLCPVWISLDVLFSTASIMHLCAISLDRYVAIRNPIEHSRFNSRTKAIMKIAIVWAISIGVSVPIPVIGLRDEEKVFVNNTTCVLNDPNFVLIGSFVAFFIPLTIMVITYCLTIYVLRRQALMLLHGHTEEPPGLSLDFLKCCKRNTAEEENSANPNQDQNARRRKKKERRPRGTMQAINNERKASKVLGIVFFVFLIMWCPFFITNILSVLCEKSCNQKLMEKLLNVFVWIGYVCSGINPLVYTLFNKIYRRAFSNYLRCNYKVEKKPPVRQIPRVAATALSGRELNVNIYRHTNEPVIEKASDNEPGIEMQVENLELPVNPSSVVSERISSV
T1 sequence (P32121 whole entry partner): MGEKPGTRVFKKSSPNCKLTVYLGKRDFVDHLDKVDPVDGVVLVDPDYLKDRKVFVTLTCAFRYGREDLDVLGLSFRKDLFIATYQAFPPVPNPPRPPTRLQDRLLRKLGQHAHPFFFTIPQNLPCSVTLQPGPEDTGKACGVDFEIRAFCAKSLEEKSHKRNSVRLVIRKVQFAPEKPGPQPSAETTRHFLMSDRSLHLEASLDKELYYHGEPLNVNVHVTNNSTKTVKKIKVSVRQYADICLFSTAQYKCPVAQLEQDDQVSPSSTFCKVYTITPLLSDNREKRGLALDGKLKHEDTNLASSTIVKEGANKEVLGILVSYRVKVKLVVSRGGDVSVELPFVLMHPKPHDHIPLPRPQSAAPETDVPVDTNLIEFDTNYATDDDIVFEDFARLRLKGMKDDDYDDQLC
Summary of the method: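 EC50 and relative efficacy came from 4-parameter variable-slope fits, normalised to 10 µM 5-HT or maximal 5-HT response (100%). Luminescent β-galactosidase enzyme-complementation signal was read after 1.5 h compound exposure in U2OS_HTR2C_β-Arrestin cells held in 1% serum medium from the prior day.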

[1] = Metabolic stability in human liver microsomes, unbound intrinsic clearance (Cl int/fu mic); assay type: in vitro ADME; settings: human, liver microsomes, pH 7.4, human liver microsomes 0.25 mg/mL, 0.5 μM compound, NADPH, read-out: Cl int, mic unb. (h) [l/h/kg] (unbound intrinsic clearance, human)
Summary of the method: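 Unbound intrinsic clearance is CLint divided by fu mic, with the unbound fraction measured by 4 h HTDialysis at 37 °C of 0.25 mg/ml microsomes spiked with 0.5 µM compound. For CLint, 0.5 µM compound was incubated with 0.25 mg/mL human microsomes and 1.0 mM NADPH (pH 7.4, 37 °C). Substrate loss over 30 min was measured by LC-MS/MS and t1/2 assumed first-order kinetics.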

EC50 (5-HT2C receptor) [nM]	Emax (5-HT2C receptor) [%]	CLint scaled at 0.5 μM [1] [L/h/kg]	Compound
200 to 1000	> 70	< 5	COCCCCc1nc(OC)c(CNC(=O)[C@@H]2CCCN2)cc1F [Example 193, (2S)—N-[[5-Fluoro-2-methoxy-6-(4-methoxybutyl)-3-pyridyl]methyl]pyrrolidine-2-carboxamide]
20 to 200	> 70	50 to 500	COc1nc(N2CC(Cc3ccccc3)C2)c(F)cc1CNC(=O)[C@@H]1CCCN1 [Example 194, (2S)—N-[[6-(3-Benzylazetidin-1-yl)-5-fluoro-2-methoxy-3-pyridyl]methyl]-pyrrolidine-2-carboxamide]

Compound	EC50 (5-HT2C receptor) [nM]	Emax (5-HT2C receptor) [%]	CLint scaled at 0.5 μM [1] [L/h/kg]
COc1nc(N2CCC(Oc3ccccc3)CC2)c(F)cc1CNC(=O)[C@@H]1CCCN1 [Example 195, (2S)—N-[[5-Fluoro-2-methoxy-6-(4-phenoxy-1-piperidyl)-3-pyridyl]methyl]-pyrrolidine-2-carboxamide; 2,2,2-trifluoroacetic Acid]	20 to 200	> 70	50 to 500
